Measurements as given in patent US20070276032A1, “Use of 8-Prenylnaringenin for Hormone Replacement Therapy” (priority 2003, published 2007).

What was measured:
[1] = tested on: ovariectomized rats; assay: Ex vivo BMD (pQCT) of proximal tibia, 2S(−) 8-PN in ovariectomized rats (Example 3); design: species or system Sprague-Dawley rats; details: OVX rats; for Total BMD, MEAN / Total BMD, MEDIAN / Trabecular BMD, MEAN / Trabecular BMD, MEDIAN: left proximal tibia ex vivo, s.c. 4 weeks
Description: (§1) The aim of the study was to examine bone and uterine effects of a 4-week treatment with 2S(−) 8-Prenylnaringenin (8-PN) in 3-month-old ovariectomized rats. […] At the end of the study, uterine weight and ex vivo bone mineral density (BMD) of tibia were measured.
(§2) A total of 30 female 13-14-week-old Sprague-Dawley rats were used in the study. The animals were randomized into 5 groups, with 6 rats/group. Group 1 was sham-operated (SHAM) and groups 2-5 were ovariectomized (OVX).
(§3) Treatments with the vehicle or test substance started on the day following operation. […] The animals were sacrificed one day after the last dosing. At the end of the study, left tibiae were excised for ex vivo BMD measurement (pQCT) at proximal tibia and uteri were excised for the determination of absolute and relative weights. In addition, samples for the determination of 2S(−)8-Prenylnaringenin concentration were taken from all dosing solutions on the day when they were prepared and on the last day of use. The data of body weights, relative uterine weights and BMD were analyzed with one-way analysis of variance.
Bone mineral density measurement was carried out by pQCT (XCT-960A, Stratec, Germany). The bone specimens were thawed before measurement. Six 1 mm-thick sections of the proximal tibia (2 mm below the epiphyseal growth plate) were scanned at 0.5 mm intervals using a voxel size of 0.148 mm. Total and trabecular BMD (mg/cm^3) were measured. After bone densitometry, the specimens were wrapped back to saline saturated gauzes and stored at −20° C.

[2] = tested on: ovariectomized rats; assay: Relative uterine weight, 2S(−) 8-PN in ovariectomized rats (Example 3); assay type: in vivo, Sprague-Dawley rats; details: OVX rats; for Relative uterus weight, Mean: s.c. 7 times a week
Description: as §1, §2, §3
Relative uterine weight was calculated as percentage of body weight

[3] = Body weight, 2S(−) 8-PN in ovariectomized rats (Example 3); assay type: in vivo, Sprague-Dawley rats; details: OVX rats, s.c. once a day, 7 times a week, 4 weeks
Text: as §2
The mean body weight of the animals was 271 g (SD 9, SE 2) before operation. Treatments with the vehicle or test substance started on the day following operation. The animals in the SHAM group received the vehicle, 30% hydroxypropyl-β-cyclodextrin s.c., and in the OVX groups either the vehicle or 2S(−) 8-PN at nominal doses of 0.67 mg/kg/d, 1.77 mg/kg/d or 18 mg/kg/d s.c. Treatments continued for 4 weeks; the dosing frequency was seven times a week. The animals were sacrificed one day after the last dosing. At the end of the study, left tibiae were excised for ex vivo BMD measurement (pQCT) at proximal tibia and uteri were excised for the determination of absolute and relative weights. In addition, samples for the determination of 2S(−)8-Prenylnaringenin concentration were taken from all dosing solutions on the day when they were prepared and on the last day of use. The data of body weights, relative uterine weights and BMD were analyzed with one-way analysis of variance.

[4] = tested on: ovariectomized rats; assay: Uterus histology, luminal epithelium cell height in ovariectomized rats (Example 3); assay type: in vivo, Sprague-Dawley rats; details: ovariectomized rat; at 1.77 mg/kg and 18 mg/kg
Description: A post-study histological examination was performed. The formalin fixed uteri were embedded in paraffin, cut into 5 μm transverse sections and were stained with haematoxylin eosin. The sections were then evaluated quantitatively for luminal epithelium cell height.

[5] = tested on: ovariectomized rats; assay: Trabecular density of proximal tibia, 8-PN racemic, 2S(−) 8-PN and estradiol hemihydrate in ovariectomized rats (Example 4); assay type: in vivo, Sprague-Dawley rats; details: OVX rats; s.c. 28 days; 20 mg/kg/d in HP-β-CD
Description: (§4) The aim of the study was to directly compare the effects of Prenylnaringenin (racemate) and 2S(−) 8-Prenylnaringenin to the effects of estradiol hemihydrate on bone mineral density and uterine weight on 3-month-old ovariectomized rats using identical formulations. In addition, the effects of estradiolhemihydrate in two vehicles (oily, aqueous) were examined for influence of formulations. The substances were administered subcutaneously(s.c.) seven days a week beginning the day after ovariectomy. At the end of the study, uterine weight and bone mineral density (BMD) of tibia were measured.
(§5) Forty-one female Sprague-Dawley rats, 12-14 weeks of age were randomized into six groups, 6-8 animals in each. Five groups were ovariectomized (OVX) and one group was sham-operated (SHAM). Treatments started on the day following operation and continued for 28 days. The animals were treated s.c. once a day seven times a week as follows. Group 1 (SHAM vehicle group) and group 2 (OVX vehicle group) were given the vehicle 30% hydroxypropyl-β-cyclodextrin (HP-β-CD). Groups 3 and 4 were administered 4 μg/kg/d of estradiol hemihydrate in vehicle benzyl benzoate/ricinus oil (B/R) and in vehicle HP-β-CD, respectively. Groups 5 and 6 were given 20 mg/kg/d of 2S(−)8-Prenylnaringenin and racemic 8-Prenylnaringenin, respectively, both in vehicle HP-β-CD. At the end of the study, left tibiae were excised for the ex vivo BMD […] were taken from all dosing solutions on the first and last day of use.
(§6) Vehicle 1 (used in the groups 1 and 2): 30% hydroxypropyl-β-cyclodextrin and 0.3% NaCl (w/v), 5% ethanol (v/v) in Aqua sterilisata, pH 7.4.
(§7) Vehicle 2 (used when preparing dosing solutions of the groups 4, 5 and 6): 30% hydroxypropyl-β-cyclodextrin and 0.3% NaCl (w/v) in Aqua sterilisata, pH 7.4.
(§8) Vehicle 3 (used when preparing a dosing solution of the group 3): benzyl benzoate/ricinus oil (B/R) 1+4, v/v.

[6] = Body weight, 8-PN racemic, 2S(−) 8-PN and estradiol hemihydrate in ovariectomized rats (Example 4); assay type: in vivo, Sprague-Dawley rats; details: OVX rats; s.c. once a day, 28 days; 20 mg/kg/d in HP-β-CD
Description: as §4, §5, §6, §7, §8

[7] = dose range 0.67-18 mg/kg/d s.c., 4 weeks

## CC(C)=CCc1c(O)cc(O)c2c1O[C@H](c1ccc(O)cc1)CC2=O [2S(−)8-PN, 2S(−) 8-Prenylnaringenin]
[1]; 18 mg/kg/d s.c., 4 weeks
  effect on OVX-induced decreases in BMD at the highest dose: completely inhibited OVX-induced effects
[1]; [7]
  effect on OVX-induced decreases in total and trabecular BMD: prevented the OVX-induced decreases in both total and trabecular BMD at the proximal tibial metaphysis dose dependently
[1]; 0.67 mg/kg/d
  Total BMD, MEAN: 561.1 mg/mL
  Total BMD, MEDIAN: 569.2 mg/mL
  Trabecular BMD, MEAN: 319.1 mg/mL
  Trabecular BMD, MEDIAN: 318.7 mg/mL
[1]; 1.77 mg/kg/d
  Total BMD, MEAN: 581.5 mg/mL
  Total BMD, MEDIAN: 568.1 mg/mL
  Trabecular BMD, MEAN: 330.9 mg/mL
  Trabecular BMD, MEDIAN: 329.4 mg/mL
[1]; 18 mg/kg/d
  Total BMD, MEAN: 636.5 mg/mL
  Total BMD, MEDIAN: 635.4 mg/mL
  Trabecular BMD, MEAN: 411.8 mg/mL
  Trabecular BMD, MEDIAN: 396.6 mg/mL
[2]; at the same bone effective dose
  effect on the uterus compared with 17β-estradiol: much lower effect on the uterus than 17β-estradiol at the same bone effective dose
[2]; [7]
  increase of relative uterine weight compared to ovariectomy: less than twofold
[2]; dose range 0.67-18 mg/kg/d, SHAM group 0.194%
  relative uterine weights: 0.054-0.065%
[2]; 4 weeks, 0.67 mg/kg/d
  Relative uterus weight, Mean: 0.054%
[2]; 4 weeks, 1.77 mg/kg/d
  Relative uterus weight, Mean: 0.063%
[2]; 4 weeks, 18 mg/kg/d
  Relative uterus weight, Mean: 0.065%
[3]; 0.67 mg/kg/d
  Body weight at the end (bw4b): 323 (11) g
  The change in Body weight (bw4b-bw0): 53 (7) g
[3]; 1.77 mg/kg/d
  Body weight at the end (bw4b): 305 (7) g
  The change in Body weight (bw4b-bw0): 35 (5) g
[3]; 18 mg/kg/d
  Body weight at the end (bw4b): 304 (5) g
  The change in Body weight (bw4b-bw0): 33 (4) g
[4]
  luminal epithelial cell height: weak stimulation of luminal epithelial cell height
[5]
  Trabecular density at left proximal tibia, Mean: 352 mg/cm3
  Trabecular density at left proximal tibia, Median: 352 mg/cm3
[6]
  Body weight at The end (bw4b): 289(6) g
  The change in Body weight (bw4b-bw0): 24(2) g
